According to article PMC5340293 (Bioorganic & medicinal chemistry letters, 2016):
Read-outs that look alike come from different tables or passages of the source.

Experiments:
PAR4 [1] = molecular target: T1, PAR4 (Homo sapiens, UniProt Q96RI0); assay: Progressive fold-shift; assay type: cell-based; settings: for mode of PAR4 inhibition: progressive fold-shift, parallel right-ward shift of CRC
T1 sequence (Q96RI0 18-385): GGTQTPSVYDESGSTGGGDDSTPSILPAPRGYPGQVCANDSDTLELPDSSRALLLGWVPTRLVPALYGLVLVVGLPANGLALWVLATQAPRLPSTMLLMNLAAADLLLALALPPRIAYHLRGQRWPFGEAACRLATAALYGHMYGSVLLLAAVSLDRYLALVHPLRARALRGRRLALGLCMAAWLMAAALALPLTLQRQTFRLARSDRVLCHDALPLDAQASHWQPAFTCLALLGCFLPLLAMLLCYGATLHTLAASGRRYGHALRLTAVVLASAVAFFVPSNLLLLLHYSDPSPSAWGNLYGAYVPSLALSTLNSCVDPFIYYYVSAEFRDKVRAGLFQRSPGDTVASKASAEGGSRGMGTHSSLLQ

PAR4 [2] = molecular target: T1, PAR4; assay: PAR4-AP stimulated PAC-1 binding, flow cytometry; assay type: cell-based
PAR4 [3] = molecular target: T1, PAR4; settings: cited from earlier work
collagen receptor = assay: Platelet aggregation, collagen I activation; assay type: cell-based, human; settings: 10 μg/ml collagen I; antagonist at micromolar concentrations
PAR4 [4] = molecular target: T2, PAR4 (Homo sapiens, UniProt Q96RI0); assay: γ-thrombin stimulated PAC-1 binding, flow cytometry; assay type: cell-based
T2 sequence (Q96RI0 48-385 limits assumed): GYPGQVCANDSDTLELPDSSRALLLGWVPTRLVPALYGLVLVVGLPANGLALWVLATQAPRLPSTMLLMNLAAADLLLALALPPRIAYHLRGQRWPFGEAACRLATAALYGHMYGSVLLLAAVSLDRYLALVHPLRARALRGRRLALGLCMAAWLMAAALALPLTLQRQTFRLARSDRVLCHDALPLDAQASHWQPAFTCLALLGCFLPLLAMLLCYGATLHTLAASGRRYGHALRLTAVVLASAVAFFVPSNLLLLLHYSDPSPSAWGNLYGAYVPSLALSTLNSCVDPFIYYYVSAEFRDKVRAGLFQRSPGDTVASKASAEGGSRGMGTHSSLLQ

## COc1nn2cc(-c3ccc(C(F)(F)F)cc3)nc2s1 [4c]
PAR4 [1]
  Schild EC50 log DR-1 versus log [antagonist] plot slope: 0.95±0.09
  mode of PAR4 inhibition: competitive

## COc1nn2cc(-c3ccc(Cl)cc3)nc2s1 [4k]
PAR4 [1]
  Schild EC50 log DR-1 versus log [antagonist] plot slope: 1.09±1.3
  mode of PAR4 inhibition: competitive

## COc1nn2cc(-c3ccc(OC(F)(F)F)cc3)nc2s1 [4n]
PAR4 [1]
  Schild EC50 log DR-1 versus log [antagonist] plot slope: 0.94±0.08
  mode of PAR4 inhibition: competitive

## CNc1nn2cc(-c3c(F)cccc3F)nc2s1 [NHCH3 derivative]
PAR4 [2]; result in words
  PAR4 inhibitory activity: inactive

## COc1cc(OCc2csc(-c3ccccc3)n2)c2cc(-c3cn4nc(OC)sc4n3)oc2c1 [compound 2]
PAR4 [3]
  mode of PAR4 inhibition: mixed competitive/non-competitive

## COc1nn2cc(-c3cc4ccccc4o3)nc2s1 [compound 3, 6-(benzofuran-2-yl)-2-methoxyimidazo[2,1-b][1,3,4]thiadiazole]
Collagen receptor
  off-target effects on the collagen receptor (collagen I induced aggregation): devoid

## COc1nn2cc(-c3cc4cc(OC(F)(F)F)ccc4n3C)nc2s1 [compound 5]
PAR4 [2]
  fold more potent than 1 against AP: ~ 9 fold
PAR4 [4]
  γ-thrombin ligand efficiency (LE): 0.33
Collagen receptor
  off-target effects on the collagen receptor (collagen I induced aggregation): eliminated
